What all share (experiment): NCI tumour cell line growth inhibition, 48 h
The test system of assay [1] is OVCAR-8.
The test system of assay [2] is PC-3.
In assay [3] the test system is NCI-H522.
Assay [4] relates to NCI-H226.
Assay [5] deals with 786-0.
Assay [6] relates to HCT-15.
Assay [7] deals with K562.
The test system of assay [8] is MDA-MB-435.
The subject of assay [9] is TK-10.
Assay [10] concerns SK-MEL-2.
For assay [11], the system named is MOLT-4.
Assay [12] concerns SF-539.
Assay [13] concerns SF-268.
Assay [14] deals with DU-145.
Assay [15] concerns Hs-578T.
In assay [16] the test system is CAKI-1.
Assay [17] has as its system HCC 2998.
For assay [18], the system named is A498.
For assay [19], the system named is Malme-3M.
For assay [20], the system named is OVCAR-3.

Experimental findings from ChEMBL document CHEMBL1201862, “PubChem BioAssay data set” (2004) are described below.

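Method: 48-hour compound exposure of cells in 96-well plates, five concentrations, linear interpolation of endpoints. GI50 = concentration required for 50% inhibition of growth.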 Activity calls are given as the source filed them. No stated cut-off is given here; in the data, active = GI50 up to about 1.1 µM and inactive = higher. *1 amine or outer side, *2 acyl side, *3 side chain or, on linkers, in order; H or OH if unused. Where a SMILES comes first, the peptide text is derived from it. Bridges are numbered along the chain shown (N, C = ends). [ ]: non-standard residue; d: D form. The star is where a group is joined. ξ: configuration not given here. ξOrn(4,5-diOH) = O=C(C(CC(O)C(O)N[*:3])N[*:1])[*:2]; ξhTyr(βξ-OH,γξ-OH) = NC(C(=O)O)C(O)C(O)c1ccc(O)cc1; ξPro(3ξ-OH,4ξ-Me) = CC1CNC(C(=O)O)C1O; X55 = CCCCC/C=C/C/C=C\CCCCCCCC(=O)*; Hyp = O=C(O)[CH]1C[CH](O)CN1

In the case of `C/C(=C\COP(=O)(O)OP(=O)(O)O)CC/C=C(\C)CNc1ccccc1`, the GI50 in assay [1] is > 50 µM (inactive); in assay [2] it was > 50 µM (inactive); in assay [3], > 50 µM (inactive); in assay [4], > 50 µM (inactive); in [5] it was > 50 µM (inactive); in assay [6], over 50 µM. In addition, the GI50 is > 50 µM (inactive) in [7]; > 50 µM (inactive) in assay [8]; 39.4 µM (inactive) in assay [9]; > 50 µM (inactive) in assay [10]; 20.1 µM (inactive) in assay [11]; > 50 µM (inactive) in assay [12]. Moreover, the GI50 in [13] is > 50 µM (inactive); in [14], > 50 µM (inactive); in assay [15] it was 26.4 µM (inactive); in assay [16], > 50 µM (inactive).

As for `COc1ccc(/C(C)=N/NC(=O)c2ccncc2)cc1OC`, the GI50 in assay [4] was 2.82 µM (inactive); in assay [5], > 10 µM (inactive); in [6], over 10 µM; in assay [17], > 10 µM (inactive); in assay [7], > 10 µM (inactive); in [18], > 10 µM (inactive). For the same molecule, the GI50 in assay [19] was > 10 µM (inactive); in [11] it was > 10 µM (inactive); in assay [12], > 10 µM (inactive); in assay [13] it was > 10 µM (inactive); in assay [14] it was > 10 µM (inactive); in assay [15], 7.05 µM (inactive). For the same molecule, in assay [16], the GI50 was > 10 µM (inactive).

For the molecule `CCOC(=O)/C=C(/C(=O)OCC)n1ccc(N)nc1=O`, the GI50 in [1] was > 100 µM (inactive); in assay [2] it was > 100 µM (inactive); in assay [3], 23.6 µM (inactive); in assay [20], > 100 µM (inactive); in assay [4], > 100 µM (inactive); in assay [5] it was > 100 µM (inactive). Also, the GI50 in assay [6] is over 100 µM; in assay [17], > 100 µM (inactive); in [7] it was > 100 µM (inactive); in assay [8], > 100 µM (inactive); in assay [9], > 100 µM (inactive); in [19] it was 44.6 µM (inactive). In addition, the GI50 in [10] is > 100 µM (inactive); in assay [11], 92 µM (inactive); in assay [12] it was > 100 µM (inactive); in assay [13] it was > 100 µM (inactive); in assay [14] it was > 100 µM (inactive); in assay [15], > 100 µM (inactive). In addition, the GI50 in [16] is 37 µM (inactive).

On to `O=C(NC1=NC2C=CC([N+](=O)[O-])=CC2S1)C(=O)Nn1c(S)nc2ccccc2c1=O` (centres undefined), for which the GI50 in assay [1] was 87.1 µM (inactive); in [2], 40.6 µM (inactive); in [3], 47.3 µM (inactive); in [20], > 100 µM (inactive); in assay [4], 18.8 µM (inactive); in assay [5] it was > 100 µM (inactive). For the same molecule, the GI50 was 21.2 µM in [6]; > 100 µM (inactive) in assay [17]; 64.1 µM (inactive) in [7]; > 100 µM (inactive) in assay [8]; 63 µM (inactive) in [9]; 30.4 µM (inactive) in assay [18]. Moreover, the GI50 is 80 µM (inactive) in assay [19]; > 100 µM (inactive) in assay [10]; 63 µM (inactive) in [11]; > 100 µM (inactive) in assay [12]; 99.3 µM (inactive) in [13]; 39.4 µM (inactive) in assay [15]. Besides, in assay [16], the GI50 is 40.4 µM (inactive).

In the case of `COc1cccc(C2c3cc4c(cc3OC(C)(N3CCCC3)C2C)OCO4)c1OC` (centres undefined), the GI50 in assay [1] was 10.8 µM (inactive); in assay [2], 5.11 µM (inactive); in [3] it was 13.9 µM (inactive); in assay [20] it was 5.07 µM (inactive); in [4], 14.4 µM (inactive); in assay [5], 14.5 µM (inactive). Further, the GI50 in [6] was 4.83 µM; in [17], 19.1 µM (inactive); in assay [7] it was 6.15 µM (inactive); in assay [8] it was 14.8 µM (inactive); in [9] it was 13.7 µM (inactive); in assay [19], 18.8 µM (inactive). Further, the GI50 was 7.74 µM (inactive) in [10]; 5.11 µM (inactive) in [11]; 10.9 µM (inactive) in assay [13]; 10 µM (inactive) in [14]; 10.7 µM (inactive) in assay [15]; 5.06 µM (inactive) in assay [16].

In the case of `CCOP(=O)(CC(=O)C1CC1)OCC`, the GI50 is > 100 µM (inactive) in [1]; > 100 µM (inactive) in assay [2]; > 100 µM (inactive) in assay [3]; > 100 µM (inactive) in [4]; > 100 µM (inactive) in assay [5]; over 100 µM in [6]. Also, the GI50 in assay [17], in assay [7], in assay [9], in assay [19], in assay [10] and in assay [11] was > 100 µM (inactive) each time. Also, the GI50 in assay [12], in assay [13], in [14], in assay [15] and in assay [16] was > 100 µM (inactive) in each case.

Consider `COC(=O)CCC1=CCC2(SC)C(=O)Nc3cccc1c32` (centres undefined), for which the GI50 in [1], in [2], in assay [3], in [20], in [4] and in [5] was > 100 µM (inactive) each time. Besides, the GI50 in assay [6] was over 100 µM; in [17], > 100 µM (inactive); in assay [8], > 100 µM (inactive); in assay [9], > 100 µM (inactive); in assay [19], > 100 µM (inactive); in [10], > 100 µM (inactive). For the same molecule, the GI50 in assay [11] was > 100 µM (inactive); in [12], > 100 µM (inactive); in assay [13] it was > 100 µM (inactive); in assay [14], 44.5 µM (inactive); in [15] it was > 100 µM (inactive); in assay [16], > 100 µM (inactive).

On to `CC(NC(=O)C(N)CC(=O)O)C(=O)OC12CC3CC(CC(C3)C1)C2` (centres undefined), for which the GI50 in [1] is > 100 µM (inactive); in assay [2] it was > 100 µM (inactive); in assay [3], > 100 µM (inactive); in assay [5], > 100 µM (inactive); in assay [6], over 100 µM; in assay [17] it was > 100 µM (inactive). The GI50 in assay [7], in assay [8], in assay [9], in assay [10], in assay [11] and in assay [13] was > 100 µM (inactive) throughout. In addition, the GI50 in [14] was 13.4 µM (inactive); in assay [15], > 100 µM (inactive); in assay [16], > 100 µM (inactive).

Regarding `CCN(CC)c1ccc2cc(-c3nc(O)c4ccccc4n3)c(=N)oc2c1`, the GI50 was > 100 µM (inactive) in assay [1]; > 100 µM (inactive) in assay [2]; > 100 µM (inactive) in assay [3]; > 100 µM (inactive) in assay [4]; > 100 µM (inactive) in assay [5]; over 100 µM in assay [6]. Further, the GI50 in [17], in assay [7], in [8], in assay [9], in [19] and in assay [10] was > 100 µM (inactive) each time. Further, the GI50 in assay [11], in assay [12], in assay [13], in assay [14], in assay [15] and in [16] was > 100 µM (inactive) throughout.

Turning to `CCOc1ccc2c(c1)c(CC(=O)O)cn2C`, the GI50 in assay [1], in [2], in assay [3], in [20], in assay [4] and in assay [5] was > 100 µM (inactive) in each case. The GI50 in [6] is over 100 µM; in assay [17] it was > 100 µM (inactive); in assay [7] it was > 100 µM (inactive); in [8], > 100 µM (inactive); in assay [9], > 100 µM (inactive); in [19], > 100 µM (inactive). The GI50 in assay [10], in [11], in assay [12], in assay [13], in assay [14] and in [15] was > 100 µM (inactive) throughout. In addition, the GI50 in assay [16] was > 100 µM (inactive).

With `CCCCC/C=C/C/C=C\CCCCCCCC(=O)NC1CC(O)C(O)NC(=O)C2C(O)C(C)CN2C(=O)C(C(C)O)NC(=O)C(C(O)C(O)c2ccc(O)cc2)NC(=O)C2CC(O)CN2C(=O)C(C(C)O)NC1=O` (stereo not drawn) (X55-[ξOrn(4,5-diOH)]T[Hyp][ξhTyr(βξ-OH,γξ-OH)]T[ξPro(3ξ-OH,4ξ-Me)]; lactam 1-C; configuration not given here), the GI50 in [1] was > 100 µM (inactive); in assay [2], > 100 µM (inactive); in assay [3], > 100 µM (inactive); in assay [20], > 100 µM (inactive); in assay [5], > 100 µM (inactive); in [6], over 100 µM. The GI50 in assay [17], in [7], in [8], in [9], in assay [10] and in assay [11] was > 100 µM (inactive) in each case. Moreover, the GI50 in assay [12], in assay [13], in [14], in assay [15] and in assay [16] was > 100 µM (inactive) each time.
